Test results taken from ChEMBL document CHEMBL4699589, “4-Hydroxy Pyridones from Heterologous Expression and Cultivation of the Native Host” (2020).

Tests used:
Assay type in all cases: functional
Staphylococcus aureus = assay: Antibacterial activity against Staphylococcus aureus 209P assessed as reduction in microbial growth after 1 day by two-fold dilution method; details: 24 h
Escherichia coli = assay: Antibacterial activity against Escherichia coli assessed as reduction in microbial growth after 1 day by two-fold dilution method; details: 24 h
Candida albicans = assay: Antifungal activity against Candida albicans ATCC96901 assessed as reduction in microbial growth after 2 to 3 days by two-fold dilution method; details: time day 2-3
Cryptococcus neoformans = assay: Antifungal activity against Cryptococcus neoformans assessed as reduction in microbial growth after 2 to 3 days by two-fold dilution method; details: time day 2-3

| MIC (Staphylococcus aureus) | MIC (Escherichia coli) | MIC (Candida albicans) | MIC (Cryptococcus neoformans) | SMILES |
| --- | --- | --- | --- | --- |
| > 100 µM | > 100 µM | > 100 µM | – | C/C=C/C[C@H](C)C[C@]1(C)Oc2c(-c3ccc(O)cc3)c[nH]c(=O)c2[C@@H]1O |
| > 100 µM | > 100 µM | > 100 µM | – | C/C=C/C[C@H](C)C[C@@]1(C)Oc2c(-c3ccc(O)cc3)c[nH]c(=O)c2[C@H]1O |
| > 100 µM | > 100 µM | > 100 µM | 6.25 µM | C/C=C/C[C@H](C)C[C@H](C)C(=O)c1c(O)c(-c2ccc(O)cc2)c[nH]c1=O |
| > 100 µM | > 100 µM | > 100 µM | – | C/C=C/C[C@H](C)C[C@]1(C)Oc2c(-c3ccc(O)cc3)c[nH]c(=O)c2[C@H]1O |
| > 100 µM | > 100 µM | > 100 µM | 25 µM | C/C=C/C[C@H](C)C[C@H](C)C(=O)C1=C(O)[C@H]([C@@H](O)c2ccc(O)cc2)NC1=O |
| > 100 µM | > 100 µM | > 100 µM | – | C/C=C/C[C@H](C)C[C@@]1(C)Oc2c(-c3ccc(O)cc3)c[nH]c(=O)c2[C@@H]1O |

The next lines start with the compound.

| SMILES | MIC (Staphylococcus aureus) | MIC (Escherichia coli) | MIC (Candida albicans) | MIC (Cryptococcus neoformans) |
| --- | --- | --- | --- | --- |
| C/C=C/C[C@H](C)C[C@H](C)C(=O)c1c(O)cc[nH]c1=O | > 100 µM | > 100 µM | > 100 µM | > 100 µM |
| C[C@H]1C[C@@H]2[C@H](c3c(c(-c4ccc(O)cc4)c[nH]c3=O)O[C@@H]2C)[C@@H](C)C1 | > 100 µM | > 100 µM | > 100 µM | 6.25 µM |
| C/C=C/C[C@H](C)C[C@H](C)C(=O)C1=C(O)[C@H](Cc2ccc(O)cc2)NC1=O | > 100 µM | > 100 µM | > 100 µM | > 100 µM |
| C/C=C/C[C@H](C)C[C@H](C)C(=O)C1=C(O)/C(=C/c2ccc(O)cc2)NC1=O | > 100 µM | > 100 µM | > 100 µM | > 100 µM |
| C[C@H]1[C@H](O)[C@@H](C)C[C@@H]2[C@@H]1c1c(c(-c3ccc(O)cc3)c[nH]c1=O)O[C@H]2C | > 100 µM | > 100 µM | > 100 µM | > 100 µM |
